# Marks after values point to notes of the source that are not given here.
# Legend:
# [1] = molecular target: T1, CATPO T188A variant (Scytalidium thermophilum (Humicola insolens), UniProt M4GGR5, T207A); assay type: biochemical
# [2] = molecular target: T2, CATPO T188F variant (Scytalidium thermophilum (Humicola insolens), UniProt M4GGR5, T207F); experiment: biochemical
# [3] = molecular target: T3, CATPO T188I variant (Scytalidium thermophilum (Humicola insolens), UniProt M4GGR5, T207I); assay type: biochemical
# [4] = molecular target: T1, CATPO T188A variant; experiment: biochemical
# [5] = molecular target: T4, CATPO E484A variant (Scytalidium thermophilum (Humicola insolens), UniProt M4GGR5, E503A); experiment: biochemical
# [6] = molecular target: T5, CATPO E484I variant (Scytalidium thermophilum (Humicola insolens), UniProt M4GGR5, E503I); experiment: biochemical
# [7] = molecular target: T6, CATPO E484D variant (Scytalidium thermophilum (Humicola insolens), UniProt M4GGR5, E503D); assay type: biochemical
# [8] = molecular target: T7, CATPO (Mycothermus thermophilus, UniProt M4GGR5); experiment: Spectrophotometric phenol oxidase assay without H2O2 at pH 7.0 and 60 °C, initial rates fitted to the Michaelis-Menten equation.; assay type: biochemical; conditions: n = 3
# T7 construct: recombinant, pET-28-TEV-CATPO; contains heme d; Rz 0.8
# T7 sequence (M4GGR5 20-717): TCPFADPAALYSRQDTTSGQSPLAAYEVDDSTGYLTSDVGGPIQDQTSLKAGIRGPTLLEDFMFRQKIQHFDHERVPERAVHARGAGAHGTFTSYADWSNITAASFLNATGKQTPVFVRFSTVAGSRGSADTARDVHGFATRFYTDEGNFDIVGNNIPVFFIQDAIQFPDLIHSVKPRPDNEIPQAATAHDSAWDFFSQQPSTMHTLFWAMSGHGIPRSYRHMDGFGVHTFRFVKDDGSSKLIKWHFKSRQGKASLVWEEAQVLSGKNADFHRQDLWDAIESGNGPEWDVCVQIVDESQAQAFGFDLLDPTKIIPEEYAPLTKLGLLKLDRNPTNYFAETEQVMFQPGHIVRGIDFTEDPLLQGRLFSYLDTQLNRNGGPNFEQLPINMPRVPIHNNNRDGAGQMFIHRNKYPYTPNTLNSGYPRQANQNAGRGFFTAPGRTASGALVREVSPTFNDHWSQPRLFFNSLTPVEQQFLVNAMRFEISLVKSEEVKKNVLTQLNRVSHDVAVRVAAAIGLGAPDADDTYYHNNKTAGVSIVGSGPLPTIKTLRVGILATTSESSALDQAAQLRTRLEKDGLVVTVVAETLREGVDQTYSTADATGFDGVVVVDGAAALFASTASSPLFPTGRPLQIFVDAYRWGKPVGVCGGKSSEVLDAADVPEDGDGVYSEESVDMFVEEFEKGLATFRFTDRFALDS
# Procedure: All inhibition assays were performed in triplicate.
# [9] = molecular target: T5, CATPO E484I variant; assay type: biochemical
# [10] = molecular target: T2, CATPO T188F variant; assay type: biochemical
# [11] = molecular target: T8, CATPO T188D variant (Scytalidium thermophilum (Humicola insolens), UniProt M4GGR5, T207D); assay type: biochemical
# [12] = molecular target: T8, CATPO T188D variant; experiment: biochemical
# [13] = molecular target: T3, CATPO T188I variant; experiment: biochemical
# [14] = molecular target: T9, CATPO (Scytalidium thermophilum (Humicola insolens), UniProt M4GGR5); experiment: Inhibition of catechol oxidation; assay type: biochemical; conditions: catechol oxidation by CATPO; catechol 1 to 100 mM; read-out: K i
# [15] = molecular target: T6, CATPO E484D variant; experiment: biochemical
# [16] = molecular target: T4, CATPO E484A variant; experiment: Substrate-specificity analysis of the phenol oxidase activity; assay type: biochemical
# [17] = molecular target: T9, CATPO; experiment: as above; assay type: biochemical
compound,measurement,setting,value
"Oc1cccc(O)c1O [Pyrogallol, pyrogallol]",V max,[1],16200 ± 410 mM/min
same,k cat/K m,[1],660 ± 88 s^−1 M^−1 (×10^2)
same,K m,"[1]; pH 7.0 (ABTS pH 5.0), 60°C",40 ± 1.0 mM
same,Ki,[2],64 ± 6 mM
same,V max,[3],27400 ± 310 mM/min
same,k cat/K m,[3],3470 ± 256 s^−1 M^−1 (×10^2)
same,K m,"[3]; pH 7.0 (ABTS pH 5.0), 60°C",38 ± 0.5 mM
same,Ki,[4],4.1 ± 0.8 mM
same,Ki,[5],71 ± 4 mM
same,Ki,[6],58 ± 1.8 mM
same,V max,[7],16800 ± 300 mM/min
same,k cat/K m,[7],600 ± 50 s^−1 M^−1 (×10^2)
same,K m,"[7]; pH 7.0 (ABTS pH 5.0), 60°C",40 ± 0.5 mM
same,K m,[8],40 ± 1.8 mM
same,V max,[9],20300 ± 330 mM/min
same,k cat/K m,[9],3060 ± 30 s^−1 M^−1 (×10^2)
same,K m,"[9]; pH 7.0 (ABTS pH 5.0), 60°C",40 ± 1.1 mM
same,V max,[10],28100 ± 760 mM/min
same,k cat/K m,[10],3930 ± 250 s^−1 M^−1 (×10^2)
same,K m,"[10]; pH 7.0 (ABTS pH 5.0), 60°C",37 ± 0.5 mM
same,V max,[11],15000 ± 150 mM/min
same,k cat/K m,[11],5710 ± 200 s^−1 M^−1 (×10^2)
same,K m,"[11]; pH 7.0 (ABTS pH 5.0), 60°C",41 ± 1.0 mM
same,Ki,[12],55 ± 5.5 mM
same,Ki,[13],62 ± 2.5 mM
same,Ki,[14],4.2 ± 0.8 mM
same,Ki,[15],4.1 ± 0.7 mM
same,V max,[16],50000 ± 156 mM/min
same,k cat/K m,[16],6000 ± 50 s^−1 M^−1 (×10^2)
same,K m,"[16]; pH 7.0 (ABTS pH 5.0), 60°C",36 ± 0.7 mM
same,V max,[17],18450 ± 451 mM/min
same,k cat/K m,[17],960 ± 65 s^−1 M^−1 (×10^2)

# Source: paper PMC10836395, “Investigation of how gate residues in the main channel affect the catalytic activity of Scytalidium thermophilum catalase” (Acta Crystallographica. Section D, Structural Biology, 2024)
